ChEMBL document CHEMBL1143888, “Synthesis and structure-activity relationships of N-{1-[(6-fluoro-2-naphthyl)methyl]piperidin-4-yl}benzamide derivatives as novel CCR3 antagonists” (Bioorg Med Chem, 2008)

Legend:
[1] = target: T1, C-C chemokine receptor type 3 (Homo sapiens, UniProt P51677); test: Antagonist activity at CCR3 expressed in B300-19 cells assessed as inhibition of eotaxin-induced calcium influx; assay type: functional, cell-based
T1 sequence (P51677 whole entry): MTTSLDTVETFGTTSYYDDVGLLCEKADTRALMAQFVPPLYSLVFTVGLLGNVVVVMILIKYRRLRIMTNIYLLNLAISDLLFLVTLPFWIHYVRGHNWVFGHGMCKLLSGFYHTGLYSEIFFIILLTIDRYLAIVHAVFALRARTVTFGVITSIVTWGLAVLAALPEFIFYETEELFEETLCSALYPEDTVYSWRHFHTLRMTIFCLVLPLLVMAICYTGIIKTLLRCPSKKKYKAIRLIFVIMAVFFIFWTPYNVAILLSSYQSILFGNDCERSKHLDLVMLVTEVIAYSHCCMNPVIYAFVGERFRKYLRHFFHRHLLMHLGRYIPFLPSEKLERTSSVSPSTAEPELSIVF

[2] = target: T2, C-C chemokine receptor type 3 (Homo sapiens) (UniProt P51677); test: Antagonist activity at CCR3 expressed in B300-19 cells assessed as inhibition of eotaxin-induced calcium influx at 10 uM; assay type: functional, cell-based
T2 sequence (whole entry): T1 sequence (P51677 whole entry)

[3] = target: T3, C-C chemokine receptor type 1 (Homo sapiens) (UniProt P32246); test: Inhibition of CCR1 at 10 uM
T3 sequence (whole entry): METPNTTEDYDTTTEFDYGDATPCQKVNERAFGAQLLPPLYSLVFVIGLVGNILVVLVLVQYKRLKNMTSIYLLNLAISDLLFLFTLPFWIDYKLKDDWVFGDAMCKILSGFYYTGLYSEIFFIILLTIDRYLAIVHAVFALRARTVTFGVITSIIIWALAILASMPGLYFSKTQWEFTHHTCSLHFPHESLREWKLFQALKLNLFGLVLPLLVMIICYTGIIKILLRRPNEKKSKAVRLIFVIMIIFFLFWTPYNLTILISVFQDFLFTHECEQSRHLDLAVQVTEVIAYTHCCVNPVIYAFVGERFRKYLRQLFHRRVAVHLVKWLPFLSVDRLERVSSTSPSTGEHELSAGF

Row | SMILES | IC50 [1] [nM] | other results
1 | O=C(NC1CCN(Cc2ccc3cc(F)ccc3c2)CC1)c1cccc(F)c1 | 670 | –
2 | O=C(Nc1ccccc1)OC1CCN(Cc2ccc3cc(F)ccc3c2)CC1 | 4800 | –
3 | O=C(Nc1ccccc1)C1CCN(Cc2ccc3cc(F)ccc3c2)CC1 | 1700 | –
4 | O=C(NC1CCN(Cc2ccc3cc(F)ccc3c2)CC1)c1cccc(Oc2ccccc2)c1 | 1100 | –
5 | COc1cccc(C(=O)NC2CCN(Cc3ccc4cc(F)ccc4c3)CC2)c1 | 3500 | –
6 | O=C(Nc1ccccc1)NC1CCN(Cc2ccc3cc(F)ccc3c2)CC1 | – | inhibition [2]: 31%
7 | CN(C(=O)c1ccccc1)C1CCN(Cc2ccc3cc(F)ccc3c2)CC1 | 810 | –
8 | CC1(NC(=O)c2ccccc2-c2ccccc2)CCN(Cc2ccc3cc(F)ccc3c2)CC1 | 2800 | –
9 | O=S(=O)(NC1CCN(Cc2ccc3cc(F)ccc3c2)CC1)c1ccccc1 | 830 | –
10 | COc1ccccc1C(=O)NC1CCN(Cc2ccc3cc(F)ccc3c2)CC1 | 720 | –
11 | O=C(NC1CCN(Cc2ccc3cc(F)ccc3c2)CC1)c1ccc(Oc2ccccc2)cc1 | – | inhibition [2]: 40%
12 | O=C(NC1CCN(Cc2ccc3cc(F)ccc3c2)CC1)c1ccccc1Oc1ccccc1 | 95 | –
13 | O=C(NC1CCN(Cc2ccc3cc(F)ccc3c2)CC1)c1ccccc1F | 2900 | –
14 | Fc1ccc2cc(CN3CCC(NCc4ccccc4)CC3)ccc2c1 | 600 | –
15 | O=C(NC1CCN(C/C=C/c2ccc(F)cc2)CC1)c1ccccc1 | 3400 | –
16 | O=C(NC1CCN(Cc2ccc3cc(F)ccc3c2)CC1)c1ccc(-c2ccccc2)cc1 | – | inhibition [2]: 27%
17 | COc1ccc(C(=O)NC2CCN(Cc3ccc4cc(F)ccc4c3)CC2)cc1 | 2400 | –
18 | O=C(NC1C[C@@H]2CC[C@@H](C1)N2Cc1ccc2cc(F)ccc2c1)c1ccccc1-c1ccccc1 (relative stereo; 31) | – | inhibition [3]: 40%
19 | O=C(NC1CCN(Cc2ccc3cc(F)ccc3c2)CC1)c1ccccc1 | 1300 | –
